Assay results taken from ChEMBL document CHEMBL1155492, “Evaluation of thieno[3,2-b]pyrrole[3,2-d]pyridazinones as activators of the tumor cell specific M2 isoform of pyruvate kinase” (Bioorg Med Chem Lett, 2010).
In brackets after ≈: the same amount, converted by molar mass.

Columns and labels:
[1] = Aqueous solubility in DMSO at pH 7.4 by quantitative nitrogen detection assay; type: physicochemical; conditions: aqueous solution with DMSO
[2] = biological target: T1, Pyruvate kinase PKM (Homo sapiens, UniProt P14618)
Description: (§1) Activation of human PKM2 assessed as ATP product formation after 1 hr by luminescent pyruvate kinase-luciferase coupled assay

[3] = biological target: T1, Pyruvate kinase PKM; remark: listed apart in the source
Description: as §1

T1 sequence (P14618 whole entry): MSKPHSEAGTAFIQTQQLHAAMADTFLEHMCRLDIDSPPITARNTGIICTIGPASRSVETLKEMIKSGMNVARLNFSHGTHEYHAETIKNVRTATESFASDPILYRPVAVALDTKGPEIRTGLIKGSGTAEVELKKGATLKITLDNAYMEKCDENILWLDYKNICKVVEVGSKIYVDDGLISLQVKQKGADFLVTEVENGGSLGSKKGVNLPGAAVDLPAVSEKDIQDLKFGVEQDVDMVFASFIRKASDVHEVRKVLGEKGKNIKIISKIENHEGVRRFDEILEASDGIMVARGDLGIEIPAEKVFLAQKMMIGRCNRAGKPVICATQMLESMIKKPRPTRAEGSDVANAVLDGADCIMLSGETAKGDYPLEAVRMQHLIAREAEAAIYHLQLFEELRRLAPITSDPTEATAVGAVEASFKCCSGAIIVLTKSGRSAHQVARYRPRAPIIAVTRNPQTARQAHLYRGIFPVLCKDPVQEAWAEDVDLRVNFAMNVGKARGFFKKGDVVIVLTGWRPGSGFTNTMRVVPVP

| Compound | solubility kinetic [1] [µg/mL] | AC50 [2] | AC50 [3] [nM] |
| --- | --- | --- | --- |
| Cc1cc2c(s1)c1cnn(Cc3ccccc3F)c(=O)c1n2C | < 0.2 |  |  |
| Cc1cc2c(s1)c1cnn(Cc3ccccc3F)c(=O)c1n2C(C)C |  | Not Active |  |
| Cc1cc2c(s1)c1cnn(-c3ccccc3)c(=O)c1n2C |  | Not Active |  |
| Cn1c2cc([S+](C)[O-])sc2c2cnn(Cc3cccc(N)c3)c(=O)c21 (stereo unspecified) | 29.6 (≈ 79.5 µM) |  |  |
| Cc1cc2[nH]c3c(=O)n(Cc4ccccc4F)ncc3c2s1 |  | Not Active |  |
| Cc1cc2c(s1)c1c(C)nn(Cc3ccccc3F)c(=O)c1n2C |  |  | > 30000 |
| Cn1c2cc([S+](C)[O-])sc2c2cnn(Cc3ccccc3F)c(=O)c21 (stereo unspecified) | 4.4 (≈ 11.7 µM) |  |  |
| Cn1c2cc(S(C)(=O)=O)sc2c2cnn(Cc3ccccc3F)c(=O)c21 |  | Not Active |  |
| CC(O)c1cc2c(s1)c1cnn(Cc3ccccc3F)c(=O)c1n2C (stereo unspecified) |  |  | 136 |
| Cc1cc2c(s1)c1cnn(Cc3ccc(C(F)(F)F)cc3F)c(=O)c1n2C |  |  | > 15000 |
| COc1ccc(Cn2ncc3c4sc(C)cc4n(C)c3c2=O)cc1F |  |  | 225 |
| CCn1c2cc(C)sc2c2cnn(Cc3ccccc3F)c(=O)c21 |  |  | 5900 |
| Cn1c2cc(B(O)O)sc2c2cnn(Cc3ccccc3F)c(=O)c21 |  |  | > 10000 |
| COc1cccc(Cn2ncc3c4sc([S+](C)[O-])cc4n(C)c3c2=O)c1 (stereo unspecified) | 37.4 (≈ 96.5 µM) |  | 73 |
| Cc1ccc(Cn2ncc3c4sc(C)cc4n(C)c3c2=O)c(F)c1 |  |  | 108 |
| Cn1c2ccsc2c2ncn(Cc3ccccc3F)c(=O)c21 |  |  | > 35000 |
| CCCCCn1ncc2c3sc(C)cc3n(C)c2c1=O |  |  | > 35000 |
| Cn1c2cc([S+](C)[O-])sc2c2cnn(Cc3cccc(O)c3)c(=O)c21 (stereo unspecified) | 16.9 (≈ 45.3 µM) |  | 130 |
| CC(=O)Nc1cc2c(s1)c1cnn(Cc3ccccc3F)c(=O)c1n2C |  |  | > 25000 |
